Structures are written as SMILES.

The test system of assay [1] is phosphorylated-EGFR in HEP 3B and PLC/RF5 cells. The experiment in a line: Western blot of Tyr 1173 phosphorylated EGFR in HCC cell lines. The assay is classed as cell-based. As to conditions: both cell lines, SR 48692 added to SB216763 treatment. How it is done: (§1) (A) Typical immunocytochemistry labeling for NTSR1 (Top) and EGFR (Bottom) in PLC/RF5 and HEP 3B cells treated or not with 1 μM SB216763 or 5 μM SR4892 or both for 48 h. (B and C) Representative western blot analyses of Tyr 1173 phosphorylated EGFR, EGFR, and actin of HEP 3B and PLC/RF5 treated as indicate above.
In both cell lines, phosphorylated-EGFR was increased under SB216763 treatment this increase was abolished when SR 48692 was added to the treatment.
On the technique in general: A western blot detects proteins with antibodies after separation by electrophoresis.

The test system of assay [2] is HEP-R1a tumors. The experiment in a line: HEP-R1a experimental tumor growth in mice. The assay is classed as in vivo. On the procedure:
(§2) (A) Experimental tumors were generated from the HCC cancer cell line, HEP 3B and PLC/RF5 and the NTSR1-overexpressing subclones. Comparative growth curves of HEP 3B, HEP-R1a, PLC/RF5, PLC/R1 in 8, 7, 10 and 7 mice, respectively. Tumor volumes were measured twice a week. (B) Tumor weight at 42 days. (C and D) Experimental tumors were generated from HEP 3B or HEP-R1a in the different mice. When the tumor size reached 100 mm3, mice were randomly distributed in 2 groups. A control group force feed with H2O, or with 1 mg/kg SR 48692 every day. (E) Typical IHC performed on paraffin sections for NTS, NTSR1 EGFR and phosphorylated EGFR labelling, 200× magnification.
(§3) Experimental tumors were generated from HEP 3B (A) and HEP-R1a (B) in the same mice. Mice were treated per os with 75 mg/kg erlotinib every day for 22 days. Tumor size was measured every two days. Result shown is the ratio of tumor compare to day 1. (C) The doubling time was subsequently calculated using the following formula: doubling time=t*((LN(2))/(LN(VOL F/VOL I)), at day 22.
(§4) Experimental tumors were generated from HEP 3B (D) or HEP-R1a (E) in the different mice. When the tumor size reached 100 mm^3, mice were randomly distributed in 2 groups. A control group force feed with H2O, and the treated group, force feed every day with […] sorafenib. Result shown is the ratio of tumor compare to day 1. (F) Tumor weight at day 15.
(§5) To determine the contribution of NTS/NTSR1 complex on tumor progression, mice were implanted with HCC cell lines and NTSR1 overexpressing clones. For HEP3B cells the tumors were measurable 21 days after cells injection. In contrast, the tumor burden for both clones overexpressing NTSR1 was measurable at day 13. The growth rate at day 42 was 2.9 and 2.08 fold higher for HEP-R1a and PLC-R1a as compared to respective parental cells, respectively, (FIG. 7A). As shown in FIG. 7B the tumor weights were in correspondence with the tumor size 4.3 and 2.8 fold higher for HEP-R1a and PLC-R1a as compared to their respective parental cells, respectively. To confirm the contribution of NTS/NSTR1 complex in tumor growth, animals were treated with a specific NTSR1 antagonist, the SR 48692. When tumors reach 100 mm3, the groups were treated per os with H2O, or 1 mg/kg SR 48692, respectively. […] The final tumor size of HEP-R1a tumors treated with SR 48692 was 441.9±39.85 mm^3, and was very similar to the untreated HEP 3B tumors 516.3±139.72 mm^3.
(§6) As shown above, NTSR1 activation induced a sustained EGFR activation, which we believe, acts as EGFR driver mutation (FIG. 4). To explore this hypothesis, the HCC cell lines HEP 3B and HEP-R1a were xenografted on the same mice. The mice were randomly distributed in two groups based on the size of the HEP 3B tumors. Since HEP-R1a tumors grow faster than HEP 3B tumors, HEP 3B cells were injected a few days before HEP-R1a cells. In the control group, the average HEP3B tumor size was 168.2±38.1 mm3 and the HEP-R1a tumor size was 79.7±16.4 mm3 at day 1. The treated group carried HEP 3B tumors of 164.7±31.2 mm3 and HEP-R1a tumors of 87.2±19.13 mm3 at day 1. Mice were daily treated, per os, with 75 mg/kg erlotinib or H2O for 22 days. […] Over the period of the treatment, the doubling time of HEP-R1a tumors was 7.0±0.55 days and 10.1±1.1 (p=0.0016) for control and treated with erlotinib, respectively. For the HEP 3B tumors, the doubling time was similar 7.8±0.52 and 7.7±0.84 days for control and treated group respectively (FIG. 8 C).
Sorafenib is a known multikinase inhibitor targeting Raf/MEK/ERK signaling at the level of Raf kinase, angiogenesis, VEGFR-2/-3, and PDGFR-β tyrosine kinase. Sorafenib is currently used to treat HCC with some success. In order to evaluate the autocrine NTS regulation on sorafenib responses, each HEP 3B or HEP-R1a cells were injected to four groups of mice. When tumors reach 100 mm3, the groups were treated per os with H2O, 30 mg/kg sorafenib for 15 days, respectively. […]

Assay [3] relates to EGFR expression in PLC/PRF5 and HEP3B cells. The experiment in a line: EGFR immunocytochemistry labeling in HCC cell lines. The assay is classed as cell-based. On the procedure: as §1
It was previously shown that the NTS/NTSR1 complex potentiates EGF signaling in liver, colon, prostate, lung, and breast cancer. We investigated the possible relation between NTSR1 expression and EGFR expression and activation. […] Treatment with SR48692, a specific NTSR1 antagonist, decreased the expression of EGFR, whereas NTSR1 expression was not altered. When the combined treatment with SB216763 and SR48692 is used, the effect of SB216763 on EFGR expression is limited by the presence of the NTSR1 antagonist (FIG. 5A).

Assay [4] has as its system HEP 3B tumors. The experiment in a line: HEP 3B experimental tumor growth in mice. The assay is classed as in vivo. As to conditions: HEP 3B tumors, 1 mg/kg SR 48692 per os every day. On the procedure:
as §2, §3, §4, §5
as §6, with “C). […]” for “C).”

For `COc1cccc(OC)c1-c1cc(C(=O)NC2(C(=O)O)C3CC4CC(C3)CC2C4)nn1-c1ccnc2cc(Cl)ccc12` (stereo not drawn) [SR48692], the “SB216763-induced increase of phosphorylated-EGFR” value in assay [1] is reported as “abolished”. For the same compound, in assay [2] (1 mg/kg SR 48692 per os), the final tumor size amounted to 441.9±39.85 mm^3. The tumor growth rate result was “inhibited by two fold” in assay [2] (1 mg/kg SR 48692 per os every day) and “no influence” in assay [4]. Also, in assay [3] (PLC/PRF5 and HEP3B, 48 h, 1 μM SB216763 or 5 μM SR48692), the EGFR expression entry was “decreased”. Moreover, in assay [3] (combined treatment 1 μM SB216763 and 5 μM SR48692, 48 h), the “effect of SB216763 on EGFR expression in presence of the NTSR1 antagonist” value was “limited”.

(Values after patent publication US20180134788A1, “Methods and Pharmaceutical Compositions (NTSR1 Inhibitors) for the Treatment of Hepatocellular Carcinomas” (INSERM (Institut National de la Sante et de la Recherche …, priority 2015, published 2018).)
